Test results reported in patent US10947196B2, “Beta adrenergic agonist and methods of using the same” (CURASEN THERAPEUTICS, INC., priority 2019, dated 2021).

Each compound was assayed against β1-adrenergic receptor (Homo sapiens (Human), UniProt P08588) (assay: cAMP Gs dynamic HTRF assay, β1 expressing CHO cells). Conditions: cAMP HTRF; read-out: β1 EC50.
Format: cell-based
Method: (§1) cAMP homogeneous time-resolved fluorescence (HTRF). Compound efficacy was determined using the cAMP Gs dynamic HTRF assay (Cisbio, catalog #62AM4PEC) largely following the manufacturer's instructions, also detailed below.
(§2) Compound preparation. […] Standard serial dilution curves were 10-point, 5-fold dilutions starting from a highest concentration of 10 μM. […] Assay plates were centrifuged at 500×g for 10 seconds. Compounds and IBMX were prepared at 2× final dose to compensate for addition of cells.
(§3) Cell preparation. 1× stimulation buffer, washing PBS (Dulbecco's phosphate-buffered saline, −Mg −Ca; Caisson Labs, catalog #PBL01), assay PBS (Dulbecco's phosphate-buffered saline, +Mg, +Ca; Caisson Labs, catalog #PBL02) and Versene (0.02% EDTA disodium salt solution in PBS without calcium or magnesium; Caisson Labs, catalog #EDL01) were pre-warmed to 37° C. Cells expressing beta-adrenergic receptor were washed in washing PBS to remove growth medium and then released from the surface by incubating with Versene for 5-10 minutes at 37° C. Cells were harvested using assay PBS, counted manually by hemocytometer or by an automated cell counter, pelleted by centrifugation (200×g, 5 minutes) and resuspended in 37° C. 1× stimulation buffer to a final density of 1.5×10^6 cells/mL. 5 μL of the suspended cell solution (7500 cell total) were added to all wells of the 384 well assay plate, the assay plate was covered with an Axygen® plate seal (Corning PCR-SP) and incubated in a humidified 37° C. environment supplemented with 5% CO2 for 30 minutes.
(§4) HTRF reagent addition, reading and data analysis. After 30 minutes of cell stimulation with test compound, the assay plates were centrifuged at 500×g for 10 seconds, and incubation was stopped with the addition of 5 μL cAMP-D2 acceptor, diluted 1:21 in detection and lysis buffer 2 (Cisbio 62CL2FDF) was added to all cells. Subsequently, 5 μL Anti-cAMP-Eu Donor, diluted 1:21 in detection and lysis buffer 2, was added to cells. Plates were sealed and reactions gently ‘vortexed’ at 900 rpm on a Heidolph Titramax 1000 for at least 30 minutes at room temperature. Plates were centrifuged again at 500×g for 10 seconds, and HTRF was measured using a Tecan Spark plate reader at 50 flashes per well. […] Potency estimates (EC50) were derived from the four-parameter nonlinear regression of the concentration-effect curve and an estimate of relative efficacy was determined by comparing the magnitude of the test compound HTRF signal window (min−max dose) with the signal window of the full agonist control, isoproterenol.

β1-adrenergic receptor, sequence (P08588 whole entry, species assumed): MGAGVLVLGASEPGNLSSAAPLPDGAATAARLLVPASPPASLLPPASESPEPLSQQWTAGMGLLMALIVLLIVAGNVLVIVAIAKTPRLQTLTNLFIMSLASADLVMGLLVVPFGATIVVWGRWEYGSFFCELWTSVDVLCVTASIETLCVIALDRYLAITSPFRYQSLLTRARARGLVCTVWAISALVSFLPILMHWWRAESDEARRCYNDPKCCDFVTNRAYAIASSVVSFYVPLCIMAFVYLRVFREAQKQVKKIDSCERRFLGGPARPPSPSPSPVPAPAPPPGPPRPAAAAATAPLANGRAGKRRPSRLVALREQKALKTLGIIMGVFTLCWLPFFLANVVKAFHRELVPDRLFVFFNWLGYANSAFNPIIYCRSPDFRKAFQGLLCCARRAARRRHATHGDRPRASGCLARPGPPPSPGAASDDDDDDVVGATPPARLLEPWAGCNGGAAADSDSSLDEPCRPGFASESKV

For `Cc1cccnc1[C@@H](O)CNC(C)(C)C` [Compound 03-4], the EC50 was greater than 1000 nM.

What follows are compounds tested against β2 adrenergic receptor (Homo sapiens (Human), UniProt P07550) (assay: cAMP Gs dynamic HTRF assay, β2 expressing CHO cells). Conditions: B2-AR; CHO-K1 (HitHunter); read-out: Average pEC50 [Receptor subtype: B2-AR; Cell type: CHO-K1 (HitHunter)] (converted).
Format: cell-based
Method: as §1, §2, §3, §4

β2 adrenergic receptor, sequence (P07550 whole entry, species assumed): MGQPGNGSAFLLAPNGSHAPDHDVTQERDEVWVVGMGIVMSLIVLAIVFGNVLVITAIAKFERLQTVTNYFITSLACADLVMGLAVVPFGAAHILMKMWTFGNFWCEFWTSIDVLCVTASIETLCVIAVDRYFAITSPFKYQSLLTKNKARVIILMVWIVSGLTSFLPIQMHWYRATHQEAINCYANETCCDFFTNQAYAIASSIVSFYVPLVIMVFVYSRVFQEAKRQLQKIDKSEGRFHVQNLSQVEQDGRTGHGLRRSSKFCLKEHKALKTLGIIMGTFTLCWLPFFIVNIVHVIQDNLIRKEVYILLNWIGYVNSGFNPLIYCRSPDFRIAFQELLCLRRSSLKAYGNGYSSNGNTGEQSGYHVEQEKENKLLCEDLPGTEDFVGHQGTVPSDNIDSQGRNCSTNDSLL

Compared with `CC(C)(C)NC[C@@H](O)c1ccc(C#N)c(C(F)(F)F)n1` [Compound 03-31], `CC(C)(C)NC[C@H](O)c1cccnc1C(F)(F)F` [Compound 03-118] is lower in EC50: greater than 1000 nM for the first, 100 to 1000 nM for the second.

`CN(C)c1ncccc1[C@@H](O)CNC(C)(C)C` [Compound 03-56] and `Cc1ncccc1[C@H](O)CNC(C)(C)C` [Compound 03-116] cannot be ordered by EC50: greater than 1000 nM for the first, greater than 1000 nM for the second.

`CC(C)(C)NC[C@H](O)c1cccnc1-c1cccc(F)c1` [Compound 03-61] and `CC(C)(C)NC[C@H](O)c1cccnc1C1=CCCC1` [Compound 03-62] cannot be ordered by EC50: greater than 1000 nM for the first, greater than 1000 nM for the second.

`CCNc1ncccc1[C@@H](O)CNC(C)(C)C` [Compound 03-73] and `CC(C)(C)NC[C@H](O)c1cccnc1C(C)(C)C` [Compound 03-79] cannot be ordered by EC50: greater than 1000 nM for the first, greater than 1000 nM for the second.

First: Cc1cnc(C2CCCC2)c([C@@H](O)CNC(C)(C)C)c1 [Compound 03-77]
Second: CC(C)(C)NC[C@@H](O)c1cccc(NC2CCCC2)n1 [Compound 03-236]
The EC50 of the first is higher: greater than 1000 nM for the first, 100 to 1000 nM for the second.

`CC(C)(C)NC[C@H](O)c1cccnc1CC(F)(F)F` [Compound 03-84] and `CC(C)(C)NC[C@H](O)c1ccncc1C(F)(F)F` [Compound 03-242] cannot be ordered by EC50: greater than 1000 nM for the first, greater than 1000 nM for the second.

`Cc1cc([C@@H](O)CNC(C)(C)C)ccn1` [Compound 03-108] and `CC(C)(C)NC[C@H](O)c1ccnc(C(F)(F)F)c1` [Compound 03-227] cannot be ordered by EC50: greater than 1000 nM for the first, greater than 1000 nM for the second.

`CC(C)(C)NCC(O)c1cccnc1C(=O)NC(C)(C)C` (stereo not drawn) [Compound 03-112] and `CC(C)(C)NCC(O)c1cccnc1C(=O)O` (stereo not drawn) [Compound 03-113] cannot be ordered by EC50: greater than 1000 nM for the first, greater than 1000 nM for the second.

First: CC(C)(C)NC[C@@H](O)c1cccc(N2CC3CCCC3C2)n1 (stereo partly drawn) [Compound 03-136]
Second: CC(C)(C)NC[C@H](O)c1cccc(C(=O)O)n1 [Compound 03-240]
The EC50 of the first is lower: 10 to 100 nM for the first, greater than 1000 nM for the second.

`CCOc1cccc([C@H](O)CNC(C)(C)C)n1` [Compound 03-178] and `CC(C)Oc1cccc([C@H](O)CNC(C)(C)C)n1` [Compound 03-180] fall in the same range of EC50: 100 to 1000 nM for the first, 100 to 1000 nM for the second.

First: CC(=O)Nc1cccc([C@@H](O)CNC(C)(C)C)n1 [Compound 03-194]
Second: Cn1cc(-c2cccc([C@H](O)CNC(C)(C)C)n2)cn1 [Compound 03-224]
The EC50 of the first is higher: greater than 1000 nM for the first, 100 to 1000 nM for the second.

`OC(CNC1(C(F)(F)F)CC1)c1cccc(C(F)(F)F)n1` (stereo not drawn) [Compound 03-218] and `CC(C)(C)N(O)C[C@H](O)c1cccc(C(N)=O)n1` [Compound 03-245] cannot be ordered by EC50: greater than 1000 nM for the first, greater than 1000 nM for the second.

With `CC(C)(C)NC[C@@H](O)c1ccc(C#N)cn1` [Compound 03-222] the EC50 was greater than 1000 nM.

Same assay, conditions: B2-AR; CHO-K cells; read-out: Average EC50 [Receptor subtype: B2-AR; Cell type: CHO-K]

First: CC(C)(C)NC[C@@H](O)c1ccc(C#N)c(C(F)(F)F)n1 [Compound 03-31]
Second: CC(C)(C)NC[C@H](O)c1cccnc1C(F)(F)F [Compound 03-118]
The EC50 of the first is higher: greater than 1000 nM for the first, 100 to 1000 nM for the second. The second is the more potent here.

`CN(C)c1ncccc1[C@@H](O)CNC(C)(C)C` [Compound 03-56] and `Cc1ncccc1[C@H](O)CNC(C)(C)C` [Compound 03-116] cannot be ordered by EC50: greater than 1000 nM for the first, greater than 1000 nM for the second.

`CC(C)(C)NC[C@H](O)c1cccnc1-c1cccc(F)c1` [Compound 03-61] and `CC(C)(C)NC[C@@H](O)c1nccc2ccccc12` [Compound 03-187] cannot be ordered by EC50: greater than 1000 nM for the first, greater than 1000 nM for the second.

`CC(C)(C)NCC(O)c1cccnc1C(=O)NC(C)(C)C` (stereo not drawn) [Compound 03-112] and `CC(C)(C)NCC(O)c1cccnc1C(=O)O` (stereo not drawn) [Compound 03-113] cannot be ordered by EC50: greater than 1000 nM for the first, greater than 1000 nM for the second.

First: CC(C)(C)NC[C@@H](O)c1cccc(N2CC3CCCC3C2)n1 (stereo partly drawn) [Compound 03-136]
Second: CCOc1cccc([C@H](O)CNC(C)(C)C)n1 [Compound 03-178]
The EC50 of the first is lower: 10 to 100 nM for the first, 100 to 1000 nM for the second.

First: CC(C)(C)NC[C@H](O)c1nc(C(F)(F)F)cc2ccccc12 [Compound 03-171]
Second: CC(C)Oc1cccc([C@H](O)CNC(C)(C)C)n1 [Compound 03-180]
The EC50 of the first is higher: greater than 1000 nM for the first, 100 to 1000 nM for the second. The second is the more potent here.

Same assay, conditions: cAMP HTRF; read-out: β2 EC50

For `Cc1cccnc1[C@@H](O)CNC(C)(C)C` [Compound 03-4], the EC50 was greater than 1000 nM.
